Reference: patent US9085555B2, “Complement pathway modulators and uses thereof” (priority 2011, dated 2015)
Where a name gives a salt, the structure may show the parent alone.

Each compound was assayed against Factor D (Homo sapiens (Human), UniProt P00746) (assay: biochemical). Conditions: not given.
Assay type: biochemical

Sequence of Factor D (P00746 26-253): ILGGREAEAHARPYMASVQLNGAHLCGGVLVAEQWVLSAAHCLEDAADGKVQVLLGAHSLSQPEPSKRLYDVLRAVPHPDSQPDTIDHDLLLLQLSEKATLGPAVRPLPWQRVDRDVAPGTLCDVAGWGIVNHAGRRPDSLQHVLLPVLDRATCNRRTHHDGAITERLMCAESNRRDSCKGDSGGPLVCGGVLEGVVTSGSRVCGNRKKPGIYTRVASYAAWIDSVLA

[2H]C([2H])([2H])C(=O)c1cn(CC(=O)N2C[C@H](F)[C@@H](OC)[C@H]2C(=O)NCc2cccc(Cl)c2F)c2ccccc12 [Example 619, (2S,3S,4S)-1-[2-(3-Acetyl-d3-indol-1-yl)-acetyl]-4-fluoro-3-methoxy-pyrrolidine-2-carboxylic acid 3-chloro-2-fluoro-benzylamide] and [2H]C([2H])([2H])O[C@H]1[C@@H](C(=O)NCc2cccc(Cl)c2F)N(C(=O)Cn2cc(C(C)=O)c3ccccc32)C[C@@H]1F [Example 620, (2S,3S,4S)-1-[2-(3-Acetyl-indol-1-yl)-acetyl]-4-fluoro-3-methoxy-d3-pyrrolidine-2-carboxylic acid 3-chloro-2-fluoro-benzylamide] are within 1.5-fold of each other in IC50: 14 nM for the first, 17 nM for the second.

Same assay, conditions: read-out: IC50

Going from CC(=O)c1cn(CC(=O)N2[C@@H]3C[C@@H]3C[C@H]2C(=O)NCc2cccc(Cl)c2F)c2cc(CC(=O)O)ccc12 [Example 596, (3-Acetyl-1-{2-[(1R,3S,5R)-3-(3-chloro-2-fluoro-benzylcarbamoyl)-2-aza-bicyclo[3.1.0]hex-2-yl]-2-oxo-ethyl}-1H-indol-6-yl)-acetic acid] to CC(=O)c1cn(CC(=O)N2[C@@H]3C[C@@H]3C[C@H]2C(=O)NCc2cccc(Cl)c2F)c2cc(C(=O)O)ccc12 [Example 598, 3-Acetyl-1-{2-[(1R,3S,5R)-3-(3-chloro-2-fluoro-benzylcarbamoyl)-2-aza-bicyclo[3.1.0]hex-2-yl]-2-oxo-ethyl}-1H-indole-6-carboxylic acid], the IC50 falls from 95 nM to 14 nM (6.8-fold). The second is the more potent here.

First: CC(=O)c1cn(CC(=O)N2C[C@H](F)C[C@H]2C(=O)NCc2cccc(Cl)c2F)c2cc(C(=O)O)ccc12 [Example 597, 3-Acetyl-1-{2-[(2S,4R)-2-(3-chloro-2-fluoro-benzylcarbamoyl)-4-fluoro-pyrrolidin-1-yl]-2-oxo-ethyl}-1H-indole-6-carboxylic acid]
Second: CC(=O)c1cn(CC(=O)N2C[C@H](F)C[C@H]2C(=O)NCc2cccc(Cl)c2F)c2cc(CO)ccc12 [Example 604, (2S,4R)-1-[2-(3-Acetyl-6-hydroxymethyl-indol-1-yl)-acetyl]-4-fluoro-pyrrolidine-2-carboxylic acid 3-chloro-2-fluoro-benzylamide]
The IC50 of the first is 2.6-fold lower: 14 nM for the first, 37 nM for the second. The first is the more potent here.

First: CC(=O)c1cn(CC(=O)N2C[C@](C)(F)C[C@H]2C(=O)NCc2cccc(Cl)c2F)c2cc(C(=O)O)ccc12 [Example 599, 3-Acetyl-1-{2-[(2S,4R)-2-(3-chloro-2-fluoro-benzylcarbamoyl)-4-fluoro-4-methyl-pyrrolidin-1-yl]-2-oxo-ethyl}-1H-indole-6-carboxylic acid]
Second: CC(=O)c1cn(CC(=O)N2[C@@H]3C[C@@H]3C[C@H]2C(=O)NCc2cccc(Cl)c2F)c2ccc(C(=O)O)cc12 [Example 603, 3-Acetyl-1-{2-[(1R,3S,5R)-3-(3-chloro-2-fluoro-benzylcarbamoyl)-2-aza-bicyclo[3.1.0]hex-2-yl]-2-oxo-ethyl}-1H-indole-5-carboxylic acid]
The IC50 of the first is 35-fold lower: 46 nM for the first, 1610 nM for the second. The first is the more potent here.

First: CC(=O)c1cn(CC(=O)N2[C@@H]3C[C@@H]3C[C@H]2C(=O)NCc2cccc(Cl)c2F)c2c(C(=O)O)cccc12 [Example 601, 3-Acetyl-1-{2-[(1R,3S,5R)-3-(3-chloro-2-fluoro-benzylcarbamoyl)-2-aza-bicyclo[3.1.0]hex-2-yl]-2-oxo-ethyl}-1H-indole-7-carboxylic acid]
Second: CC(=O)c1cn(CC(=O)N2[C@@H]3C[C@@H]3C[C@H]2C(=O)NCc2cc(C(=O)O)cc(Cl)c2F)c2ccccc12 [Example 606, 3-[({(1R,3S,5R)-2-[2-(3-Acetyl-indol-1-yl)-acetyl]-2-aza-bicyclo[3.1.0]hexane-3-carbonyl}-amino)-methyl]-5-chloro-4-fluoro-benzoic acid]
The IC50 of the first is 7.9-fold higher: 110 nM for the first, 14 nM for the second. The second is the more potent here.

First: CC(=O)c1cn(CC(=O)N2C[C@H](F)C[C@H]2C(=O)NCc2cccc(Cl)c2F)c2cc(OCc3ccc(C(=O)O)cc3)ccc12 [Example 602, 4-(3-Acetyl-1-{2-[(2S,4R)-2-(3-chloro-2-fluoro-benzylcarbamoyl)-4-fluoro-pyrrolidin-1-yl]-2-oxo-ethyl}-1H-indol-6-yloxymethyl)-benzoic acid]
Second: CC(=O)c1cn(CC(=O)N2C[C@H](F)C[C@H]2C(=O)NCc2cc(C(=O)O)cc(Cl)c2F)c2ccccc12 [Example 605, 3-[({(2S,4R)-1-[2-(3-Acetyl-indol-1-yl)-acetyl]-4-fluoro-pyrrolidine-2-carbonyl}-amino)-methyl]-5-chloro-4-fluoro-benzoic acid]
The IC50 of the first is 4.2-fold higher: 227 nM for the first, 54 nM for the second.

Going from CC(=O)c1cn(CC(=O)N2C[C@@](F)(CN)C[C@H]2C(=O)NCc2cccc(Cl)c2F)c2ccccc12 [Example 607, (2S,4S)-1-[2-(3-Acetyl-indol-1-yl)-acetyl]-4-aminomethyl-4-fluoro-pyrrolidine-2-carboxylic acid 3-chloro-2-fluoro-benzylamide] to CN[C@H]1C[C@@H](C(=O)NCc2cccc(Cl)c2F)N(C(=O)Cn2cc(C(C)=O)c3ccccc32)C1 [Example 608, (2S,4S)-1-[2-(3-Acetyl-indol-1-yl)-acetyl]-4-methylamino-pyrrolidine-2-carboxylic acid 3-chloro-2-fluoro-benzylamide], the IC50 rises from 28 nM to 1840 nM (66-fold).

First: COCCN[C@H]1C[C@@H](C(=O)NCc2cccc(Cl)c2F)N(C(=O)Cn2cc(C(C)=O)c3ccccc32)C1 [Example 609, (2S,4S)-1-[2-(3-Acetyl-indol-1-yl)-acetyl]-4-(2-methoxy-ethylamino)-pyrrolidine-2-carboxylic acid 3-chloro-2-fluoro-benzylamide]
Second: CC(=O)c1cn(CC(=O)N2[C@H](C(=O)NCc3cccc(Cl)c3F)C[C@@]3(CO)C[C@@H]23)c2ccccc12 [Example 611, (1R,3S,5S)-2-[2-(3-Acetyl-indol-1-yl)-acetyl]-5-hydroxymethyl-2-aza-bicyclo[3.1.0]hexane-3-carboxylic acid 3-chloro-2-fluoro-benzylamide]
The IC50 of the first is 11-fold higher: 1560 nM for the first, 141 nM for the second.

Going from CC(=O)c1cn(CC(=O)N2C[C@@H]3C[C@@H]3[C@H]2C(=O)N[C@H](CO)c2cccc(Cl)c2F)c2ccccc12 [Example 612, (1S,2S,5R)-3-[2-(3-Acetyl-indol-1-yl)-acetyl]-3-aza-bicyclo[3.1.0]hexane-2-carboxylic acid [(S)-1-(3-chloro-2-fluoro-phenyl)-2hydroxy-ethyl]-amide] to CC(=O)c1cn(CC(=O)N2[C@@H]3C[C@@H]3C[C@H]2C(=O)N[C@H](CO)c2cccc(Cl)c2F)c2ncccc12 [Example 613, (1R,3S,5R)-2-[2-(3-Acetyl-pyrrolo[2,3-b]pyridin-1-yl)-acetyl]-2-aza-bicyclo[3.1.0]hexane-3-carboxylic acid [(S)-1-(3-chloro-2-fluoro-phenyl)-2-hydroxy-ethyl]-amide], the IC50 falls from 3430 nM to 215 nM (16-fold).

Going from CC(=O)c1cn(CC(=O)N2C[C@](C)(F)C[C@H]2C(=O)N[C@H](CO)c2cccc(Cl)c2F)c2ncccc12 [Example 614, (2S,4R)-1-[2-(3-Acetyl-pyrrolo[2,3-b]pyridin-1-yl)-acetyl]-4-fluoro-4-methyl-pyrrolidine-2-carboxylic acid [(S)-1-(3-chloro-2-fluoro-phenyl)-2-hydroxy-ethyl]-amide] to CO[C@H]1[C@@H](C(=O)N[C@H](C)c2cccc(Cl)c2F)N(C(=O)Cn2nc(C(C)=O)c3cccnc32)C[C@@H]1F [Example 624, (2S,3S,4S)-1-[2-(3-Acetyl-pyrazolo[3,4-b]pyridin-1-yl)-acetyl]-4-fluoro-3-methoxy-pyrrolidine-2-carboxylic acid [(R)-1-(3-chloro-2-fluoro-phenyl)-ethyl]-amide], the IC50 falls from 245 nM to 26 nM (9.4-fold).

First: CC(=O)c1cn(CC(=O)N2[C@@H]3C[C@@H]3C[C@H]2C(=O)NCc2cccc(Cl)c2F)c2ccc(C(=N)N(C)C)cc12 [Example 615, (1R,3S,5R)-2-{2-[3-Acetyl-5-(N,N-dimethyl-carbamimidoyl)-indol-1-yl]-acetyl}-2-aza-bicyclo[3.1.0]hexane-3-carboxylic acid 3-chloro-2-fluoro-benzylamide]
Second: CC(=O)c1cn(CC(=O)N2[C@@H]3C[C@@H]3C[C@H]2C(=O)NCc2cccc(Cl)c2F)c2cc(C(=N)N(C)C)ccc12 [Example 616, (1R,3S,5R)-2-{2-[3-Acetyl-6-(N,N-dimethyl-carbamimidoyl)-indol-1-yl]-acetyl}-2-aza-bicyclo[3.1.0]hexane-3-carboxylic acid 3-chloro-2-fluoro-benzylamide]
The IC50 of the first is 2.9-fold lower: 42 nM for the first, 123 nM for the second. The first is the more potent here.

CC(=O)c1cn(CC(=O)N2C[C@H](F)C[C@H]2C(=O)NCc2cccc(Cl)c2F)c2cc(-c3nnn[nH]3)ccc12 [Example 617, (2S,4R)-1-{2-[3-Acetyl-6-(1H-tetrazol-5-yl)-indol-1-yl]-acetyl}-4-fluoro-pyrrolidine-2-carboxylic acid 3-chloro-2-fluoro-benzylamide] and CC(=O)c1cn(CC(=O)N2[C@@H]3C[C@@H]3C[C@H]2C(=O)NCc2cccc(Cl)c2F)c2cc(-c3nnn[nH]3)ccc12 [Example 618, (1R,3S,5R)-2-{2-[3-Acetyl-6-(1H-tetrazol-5-yl)-indol-1-yl]-acetyl}-2-aza-bicyclo[3.1.0]hexane-3-carboxylic acid 3-chloro-2-fluoro-benzylamide] are within 1.5-fold of each other in IC50: 28 nM for the first, 39 nM for the second.

Compared with CC(=O)c1nc(CC(=O)N2[C@@H]3C[C@@H]3C[C@H]2C(=O)NCc2cccc(Cl)c2F)n2ccccc12 [Example 621, (1R,3S,5R)-2-[2-(1-Acetyl-imidazo[1,5-a]pyridin-3-yl)-acetyl]-2-aza-bicyclo[3.1.0]hexane-3-carboxylic acid 3-chloro-2-fluoro-benzylamide], CC(=O)c1cn(CC(=O)N2[C@H](CNC(=O)Oc3cccc(Cl)c3F)C[C@H]3C[C@H]32)c2ccccc12 [Example 622, {(1R,3S,5R)-2-[2-(3-Acetyl-indol-1-yl)-acetyl]-2-aza-bicyclo[3.1.0]hex-3-ylmethyl}-carbamic acid 3-chloro-2-fluoro-phenyl ester] is 290-fold higher in IC50: 19 nM for the first, 5600 nM for the second. The first is the more potent here.

CC(=O)c1nn(CC(=O)N2C[C@H](F)C[C@H]2C(=O)NCc2cccc(Cl)c2F)c2cnccc12 [Example 623, (2S,4R)-1-[2-(3-Acetyl-pyrazolo[3,4-c]pyridin-1-yl)-acetyl]-4-fluoro-pyrrolidine-2-carboxylic acid 3-chloro-2-fluoro-benzylamide formate] gave an IC50 of 24 nM.
